The values that follow are results of earlier work, collected in patent US20230033410A1, “COMPLEX FORMULATION COMPRISING SITAGLIPTIN AND DAPAGLIFLOZIN, AND PREPARATION METHOD THEREFOR” (HANMI PHARM. CO.,LTD., priority 2019, published 2023).

Read-outs that look alike come from different tables or passages of the source.

The conditions of this series: plasma.

Take `CCOc1ccc(Cc2cc([C@@H]3O[C@H](CO)[C@@H](O)[C@H](O)[C@H]3O)ccc2Cl)cc1` [dapagliflozin, (2S,3R,4R,5S,6R)-2-[4-chloro-3-(4-ethoxybenzyl)phenyl]-6-(hydroxymethyl)tetrahydro-2H-pyran-3,4,5-triol]: the Tmax is 1 to 2 h (range in brackets) and “about 1 hour” (stated for both drugs).
As for `N[C@@H](CC(=O)N1CCn2c(nnc2C(F)(F)F)C1)Cc1cc(F)c(F)cc1F` [sitagliptin, (R)-3-amino-1-(3-(trifluoromethyl)-5,6-dihydro-[1,2,4]triazolo[4,3-a]pyrazin-7(8H)-yl)-4-(2,4,5-trifluorophenyl)butan-1-one], the Tmax was 1 to 4 h (range in brackets) and “about 1 hour” (stated for both drugs).

One may read the Tmax as the time at which the peak concentration occurs.
